What was measured:
[1] = tested on: prostate cancer cell line (PC-3); experiment: MTT cytotoxicity assay; format: cell-based, human; settings: Homo sapiens
Experimental: The MTT method for monitoring in vitro cytotoxicity was used with multiwell plates. Three human cell lines, namely prostate cancer cell line (PC-3), renal cancer cell line (UO-31), and breast cancer cell line (MCF-7) were obtained from the American Type Culture Collection ATCC, Manassas, VA, USA). The cells were trypsinized and seeded in 96 well plates with a density of 1.2 − 1.8 × 10,000 cells/well for 24 h at 37 °C. After treating the cells with five concentrations of compound 5c (0.01, 0.1, 1, 10, 100 µM), an MTT solution (Sigma Co., St. Louis, MO, USA) (5 mg/mL in phosphate buffer solution) was applied to each well and […]. The plates were cultivated in 5% CO2 for 4 h at 37 °C. Successively, the remaining formazan crystals were dissolved in 100 µl of DMSO, and the absorbance was determined with the ROBONIK P2000 spectrophotometer at a wavelength of 570 nm. The obtained values were analysed using Gen5 software (BioTek, UK). The proliferation percentage in each treated cell line was standardised based on their control wells. Both tests have been conducted in triplicate. The IC50 values were calculated using sigmoidal dose-response curve fitting models. […] Each test included a blank containing a complete medium without cells.

[2] = tested on: CYP17 enzyme; experiment: CYP17 enzyme ELISA in mice prostate cancer model; format: in vivo; settings: 5 mg/kg i.p., 5 days a week, ELISA of tissue (Mice testis)
Experimental: (§1) A total of 16 mice from the TRAMP/FVB background ([…], male, average 45 days, average weight […], mice with prostate cancer) were taken and divided into 2 groups with 8 animals in each group. One group of mice was given a drug in 0.2 ml of DMSO and phosphate-buffered saline (1:10) ratio (5 mg/kg body weight, i.p., 5 days a week). The control group animals were treated with 0.2 ml of DMSO and phosphate-buffered saline (1:10) ratio. A total of eight mice, four animals from each group, were examined at 13 weeks of age, and the remaining animals from each group were examined at 20 weeks for prostate tumour development. Treatment was stopped 24 h before killing the animals.
BioSource 2704060 96 assay kit is a sandwich enzyme immunoassay for in vitro quantitative measurement of CYP17 enzyme activity in mouse tissue homogenates, cell lysates, cell culture supernatant, and other biological fluids. Tested tissues were rinsed in ice-cold PBS to remove excess blood and weighed before homogenisation. The tissues were minced and homogenised in fresh lysis buffer with a glass homogeniser. (catalog: IS007, different lysis buffer needs to be chosen based on subcellular location of the target protein) (w:v = 1:20–1:50, e.g. 1 ml lysis buffer is added in 20–50 mg tissue sample) The resulting suspension was sonicated with an ultrasonic cell disrupter till the solution was clarified. The homogenates were centrifuged for 5 min at 10,000 × g, and the supernatant was collected. An Aliquot was assayed and stored at ≤ −20 °C.
The assay sample and standard were incubated together with CYP-HRP conjugate in an appropriate number of microplates pre-coated with an antibody specific for the CYP17 enzyme for 1 h. After the incubation period, the wells were decanted and washed five times. The wells were then incubated with a substrate for the HRP enzyme. […] Colour intensity was measured spectrophotometrically at 450 nm in a microplate reader. […]
Assay procedures: Wells for a standard, blank, and sample were prepared. […] The absorbance was measured immediately at 450 nm.

[3] = tested on: plasma testosterone; experiment: Testosterone ELISA assay in mice prostate cancer model; format: in vivo; settings: 5 mg/kg i.p., 5 days a week, ELISA, 5 mg/kg
Experimental: as §1
The BioVendor mouse/rat testosterone ELISA assay is a competitive immunoassay for the measurement of testosterone in rat and mouse serum or plasma based on the principle of competitive binding. An unknown amount of testosterone present in the sample (plasma or serum) and a known amount of testosterone conjugated to horseradish peroxidase compete for the binding sites of testosterone antiserum coated to the wells of a microplate. The sample was incubated with the microplate for 1 h, then washed four times. The HRP substrate solution was added followed by the stop solution. Colour change has been observed, and the optical density was measured at 450 nm.
Assay procedures: Sufficient number of microplate wells were prepared to accommodate standard and samples in duplicates. The standard, sample, and control (10 µL each) were dispensed with new disposable tips into appropriate wells. Incubation buffer 100 µL was dispensed into each well. Afterward, enzyme conjugate (50 µL) was added to each well and incubated for 60 min at room temperature on a microplate mixer. The content of the wells was discarded, and the wells were rinsed 4 times with diluted wash solution (300 µL per well). The substrate solution (200 µL) was added to each well and incubated in the dark without shaking for 30 min. The reaction was stopped by adding a stop solution (2 N hydrochloric acid solution, 50 µL) to each well. The absorbance of each well was determined at 450 nm.

[4] = tested on: CYP17; settings: Figure 1, known CYP17 inhibitors; cited from earlier work
[5] = tested on: WI-38 human cell line; experiment: In vitro cytotoxicity on WI-38 human cell line (MTT); format: cell-based; settings: WI-38 normal human cell line
Experimental: Cell Line cells were obtained from American Type Culture Collection and were cultured using DMEM (Invitrogen/Life Technologies) supplemented with 10% FBS (Hyclone), 10 µg/ml of insulin (Sigma), and 1% penicillin-streptomycin. All of the other chemicals and reagents were obtained from Sigma or Invitrogen. Plate cells were incubated (cells density 1.2–1.8 × 10,000 cells/well) in a volume of 100 µL complete growth medium and 100 ul of the tested compound per well in a 96-well plate for 24 h before the MTT assay. The cultures were removed from the incubator into a laminar flow hood or other sterile work area followed by the addition of reconstituted MTT in an amount equal to 10% of the culture medium volume, then incubated for an additional 2 h. After the incubation period, cultures were removed from the incubator, and the resulted formazan crystals were dissolved by adding an amount of MTT solubilisation solution [M-8910] equal to the original culture medium volume, then the absorbance at a wavelength of 570 nm was measured. Finally, the IC50 of the tested compound compared to the reference was calculated using GraphPad Prism software.

[6] = listed as Abireratone reference
[7] = listed as abiraterone reference

Row | Structure (SMILES) | IC50 [1] [µM] | CYP17 enzyme aver. conc. [2, 6] [nM] | CYP17 enzyme aver. conc. [2, 7] [nM] | Plasma testosterone aver. conc. [3, 6] [nM] | Plasma testosterone aver. conc. [3, 7] [nM] | IC50 [4] [µM] | IC50 [5] [µM]
1 | C[C@]12CC[C@H](O)CC1=CC[C@@H]1[C@@H]2CC[C@]2(C)C(c3cccnc3)=CC[C@@H]12 [Abiraterone, abiraterone, reference compound] | 8.3 | 10.72 | 10.72 ± 0.17 | 13.79 | 13.79 ± 0.33 | 0.002 | –
2 | CN[C@@H]1C[C@H]2O[C@@](C)([C@@H]1OC)n1c3ccccc3c3c4c(c5c6ccccc6n2c5c31)C(=O)NC4 [staurosporine, reference compound] | 5.1 | – | – | – | – | – | 19.2

From PMC8330742, “New benzothieno[2,3-c]pyridines as non-steroidal CYP17 inhibitors: design, synthesis, anticancer screening, apoptosis induction, and in silico ADME profile studies” (Journal of Enzyme Inhibition and Medicinal Chemistry, 2021)
